In patent US8802595B2, “Use of prolines for improving growth and/or yield” (Los Alamos National Security, LLC, priority 2005, dated 2014):

Tests used:
Format in all cases: in vivo
morning glory = assay: Herbicidal killing rate on morning glory (Example 8); details: recommended field strength application, 25 plants each treatment
Protocol: (§1) Two dicotyledenous plants, white clover and morning glory were treated with the manufacturer's recommended field strength application and the killing rate was measured. Growing morning glory and clover plants (25 each treatment) treated with either 2,4-D alone or a mixture of 2,4-D and pyroglutamate were killed with the same efficacy, 100%.

oats [1] = assay: Mitigation by pyroglutamate of 2,4-D-induced stress in oats (Example 7); details: oat seedlings in greenhouse, 2,4-D at ¼ field strength, pyroglutamate 13.5 g/L, with surfactant/wetting agent
Protocol: A test was conducted to measure mitigation by pyroglutamate of 2,4-D-induced stress in a monocotyledonous crop plant, oats.
Growing oat plants were treated with a mixture of pyroglutamate (isomer ratio 85:15 of L:D) and 2,4-D and their growth monitored. Oat seedlings, growing vigorously in a greenhouse, were treated with a mixture of 2,4-D and pyroglutamate (13.5 g/L). The 2,4-D was included in the mixture at ¼ of the recommended field strength; a surfactant/wetting agent (Gly Surf P) was also used. The treatment solution was applied with a backpack R&D sprayer using 2 passes over the plants to assure that all plants received treatment solution. It was estimated that this simulated a ½ strength field dose. These plants were compared with plants treated with the herbicide and surfactant/wetting agent as well as with controls treated only with the surfactant/wetting agent (controls).

white clover = assay: Herbicidal killing rate on white clover (Example 8); details: recommended field strength application, 25 plants each treatment
Protocol: as §1

oats [2] = assay: Oat tillers with flag leaves emerged at day 28 post-treatment (Example 2)
Description: The oats from example 1 were also monitored for their number of tillers with flag leaves emerged at day 28 post-treatment. This parameter relates to potential for grain yield. Table 2 contains the resultant tillers with flag leaves at 28 days for the same series of isomer mixtures.

[3] = tested on: Commercial field grown table grapes; assay: Yield of field grown table grapes sprayed twice (Example 6); details: 25 gm per acre
Description: Commercial field grown table grapes were at sprayed twice the first time at 6-12″ of new vine growth and the second spraying 2 months later. The pyroglutamate composition (isomer ratio 85:15 of L:D) was applied at a rate of 25 gm per acre.

[4] = tested on: Commercial field grown wheat; assay: Grain yield of field grown wheat sprayed at flag leaf stage (Example 5); details: wheat sprayed one time at flag leaf stage, harvested at maturity
Description: Commercial field grown wheat was sprayed one time with the pyroglutamate composition (isomer ratio 85:15 of L:D) at the flag leaf stage using the same treatment solution as described in our other plant treatments. Grain was harvested at maturity; the treated plots yielded 0.65 T/hectare more (7% increase) grain (seed) than the untreated plots.

SMILES: O=C(O)COc1ccc(Cl)cc1Cl [2,4-D, 2,4-dichlorophenoxy acetic acid]
- killing efficacy (morning glory): 100%
- average plant fresh weight (oats [1]): 2.29 g
- killing efficacy (white clover): 100%

SMILES: O=C(O)[C@@H]1CCC(O)=N1 [Series 1, pyroglutamate]
- Tillers with flag leaves (oats [2]; listed as 1): 20

SMILES: O=C(O)[C@@H]1CCC(O)=N1 [Series 2, pyroglutamate, reference compound]
- Tillers with flag leaves (oats [2]; listed as 2): 24

SMILES: O=C(O)[C@@H]1CCC(O)=N1 [Series 3, pyroglutamate]
- Tillers with flag leaves (oats [2]; listed as 3): 17

SMILES: O=C(O)[C@@H]1CCC(O)=N1 [Series 4, pyroglutamate]
- Tillers with flag leaves (oats [2]; listed as 4): 34

SMILES: O=C(O)[C@@H]1CCC(O)=N1 [Series 5, pyroglutamate]
- Tillers with flag leaves (oats [2]; listed as 5): 33

SMILES: O=C(O)[C@@H]1CCC(O)=N1 [Series 6, pyroglutamate]
- Tillers with flag leaves (oats [2]; listed as 6): 37

SMILES: O=C(O)[C@@H]1CCC(O)=N1 [Series 7, pyroglutamate]
- Tillers with flag leaves (oats [2]; listed as 7): 29

SMILES: O=C(O)[C@@H]1CCC(O)=N1 [Series 8, pyroglutamate]
- Tillers with flag leaves (oats [2]; listed as 8): 31

SMILES: O=C(O)[C@@H]1CCC(O)=N1 [Series 9, pyroglutamate]
- Tillers with flag leaves (oats [2]; listed as 9): 23

SMILES: O=C(O)[C@@H]1CCC(O)=N1 [Series 10, pyroglutamate]
- Tillers with flag leaves (oats [2]; listed as 10): 22

SMILES: O=C(O)[C@@H]1CCC(O)=N1 [Series 11, pyroglutamate]
- Tillers with flag leaves (oats [2]; listed as 11): 26

SMILES: O=C(O)[C@@H]1CCC(O)=N1 [Series 12, pyroglutamate]
- Tillers with flag leaves (oats [2]; listed as 12): 24

SMILES: O=C(O)[C@@H]1CCC(O)=N1 [pyroglutamate composition (isomer ratio 85:15 of L:D), pyroglutamate]
- greater yield of harvestable grapes than untreated plots [3]: 13.5%
- yield of harvestable grapes [3]: 1045 standard boxes
- grain (seed) yield more than untreated plots [4]: 0.65 T/hectare
- increase in grain yield versus untreated plots [4]: 7%
